Target: T1, histamine 3 receptor (H3R) (Homo sapiens, UniProt Q9Y5N1)
T1 construct: expressed in transfected cells; host or cells: CHO cells (HR3-CHO cell line), membranes
Assay: Binding assay with 3H-(R)α-methylhistamine (competition binding, membranes of the human HR3-CHO cell line)
Settings: competition against 3H(R)α-Methylhistamine (1 nM), Ki calculated from IC50 by Cheng-Prusoff
Method: Binding assay with ^3H—(R)α-methylhistamine
Saturation binding experiments were performed using HR3-CHO membranes prepared as described in Takahashi, K, Tokita, S., Kotani, H. (2003) J. Pharmacol. Exp. Therapeutics 307, 213-218.
An appropriate amount of membrane (60 to 80 μg protein/well) was incubated with increasing concentrations of ^3H(R)α-Methylhistamine di-hydrochloride (0.10 to 10 nM). Non specific binding was determined using a 200 fold excess of cold (R)α-Methylhistamine dihydrobromide (500 nM final concentration). The incubation was carried out at room temperature (in deep-well plates shaking for three hours). The final volume in each well was 250 μl. The incubation was followed by rapid filtration on GF/B filters (pre-soaked with 100 μl of 0.5% PEI in Tris 50 mM shaking at 200 rpm for two hours). The filtration was made using a cell-harvester and the filter plates were then washed five times with ice cold washing buffer containing 0.5 M NaCl. After harvesting, the plates were dried at 55° C. for 60 min, then we added scintillation fluid (Microscint 40, 40 microl in each well) and the amount of radioactivity on the filter was determined in Packard top-counter after shaking the plates for two hours at 200 rpm at room temperature.
Binding Buffer: 50 mM Tris-HCl pH 7.4 and 5 mM MgCl2×6H2O pH 7.4. Washing Buffer: 50 mM Tris-HCl pH 7.4 and 5 mM MgCl2×6H2O and 0.5 M NaCl pH 7.4.
Indirect measurement of affinity of H3R inverse agonists: twelve increasing concentrations (ranging from 10 μM to 0.3 nM) of the selected compounds were always tested in competition binding experiments using membrane of the human HR3-CHO cell line. An appropriate amount of protein, e.g. approximately 500 cpm binding of RAMH at Kd, were incubated for 1 hour at room temperature in 250 μl final volume in 96-well plates in presence of ^3H(R)α-Methylhistamine (1 nM final concentration=Kd). […]
All compounds were tested at a single concentration in duplicates. […] Ki's were calculated from IC50 based on Cheng-Prusoff equation (Cheng, Y, Prusoff, W H (1973) Biochem Pharmacol 22, 3099-3108).

T1 sequence (Q9Y5N1 whole entry): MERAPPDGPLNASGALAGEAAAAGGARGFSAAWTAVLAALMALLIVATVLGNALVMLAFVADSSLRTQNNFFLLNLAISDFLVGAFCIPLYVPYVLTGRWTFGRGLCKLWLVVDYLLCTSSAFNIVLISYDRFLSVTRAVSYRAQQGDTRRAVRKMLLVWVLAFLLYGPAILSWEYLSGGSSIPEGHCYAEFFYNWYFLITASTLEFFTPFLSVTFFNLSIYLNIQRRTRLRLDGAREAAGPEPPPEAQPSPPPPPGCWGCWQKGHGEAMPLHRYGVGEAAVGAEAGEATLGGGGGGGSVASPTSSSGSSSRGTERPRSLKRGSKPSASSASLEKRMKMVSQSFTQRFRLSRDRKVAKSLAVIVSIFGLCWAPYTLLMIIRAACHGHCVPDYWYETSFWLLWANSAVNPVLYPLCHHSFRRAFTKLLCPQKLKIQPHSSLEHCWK

Ki	SMILES
6.5 nM	C[C@@H]1CCCN1CCCOc1ccc2c(c1)cc1n2CCNC1=O [Example 5, 8-[3-((R)-2-Methyl-pyrrolidin-1-yl)-propoxy]-3,4-dihydro-2H-pyrazino[1,2-a]indol-1-one]
17.1 nM	CC(C)N1CCC(Oc2ccc3c(c2)cc2n3CCCN(CC3CC3)C2=O)CC1 [Example 78, 2-Cyclopropylmethyl-9-(1-isopropyl-piperidin-4-yloxy)-2,3,4,5-tetrahydro-[1,4]diazepino[1,2-a]indol-1-one]
28.8 nM	C[C@H]1CCCN1CCCOc1cnc2c(c1)cc1n2CCN(CC(F)(F)F)C1=O [Example 92, 7-[3-((S)-2-Methyl-pyrrolidin-1-yl)-propoxy]-2-(2,2,2-trifluoro-ethyl)-3,4-dihydro-2H-2,4a,5-triaza-fluoren-1-one]

— patent US7786109B2, “Tricyclic amide derivatives as modulators of H3 receptors” (Hoffmann-La Roche Inc., priority 2005, dated 2010)
